Test results taken from PubChem BioAssay (NCI).
Where “and” joins values, the source holds several entries; their conditions need not be identical. Identical values can stand only once.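 A five-concentration, 48-hour dose response in 96-well plates underlies each endpoint, interpolated linearly between surrounding concentrations. GI50: concentration for 50% inhibition of growth. TGI denotes the concentration required for complete inhibition of growth.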

Assays:
Assay in all cases: growth of human tumour cells (NCI), 48 h
786-0 renal = test system: 786-0 renal
A498 renal = test system: A498 renal
A549 NSCLC = test system: A549 NSCLC
ACHN renal = test system: ACHN renal
CAKI-1 renal = test system: CAKI-1 renal
CCRF-CEM leukemia = test system: CCRF-CEM leukemia
COLO 205 colon = test system: COLO 205 colon
DLD-1 colon = test system: DLD-1 colon
DMS 114 small cell lung = test system: DMS 114 small cell lung
DMS 273 small cell lung = test system: DMS 273 small cell lung
EKVX NSCLC = test system: EKVX NSCLC
HCC-2998 colon = test system: HCC-2998 colon
HCT-116 colon = test system: HCT-116 colon
HCT-15 colon = test system: HCT-15 colon
HL-60(TB) leukemia = test system: HL-60(TB) leukemia
HOP-18 NSCLC = test system: HOP-18 NSCLC
HOP-62 NSCLC = test system: HOP-62 NSCLC
HOP-92 NSCLC = test system: HOP-92 NSCLC
HT29 colon = test system: HT29 colon
IGROV1 ovarian = test system: IGROV1 ovarian
K-562 leukemia = test system: K-562 leukemia
KM12 colon = test system: KM12 colon
KM20L2 colon = test system: KM20L2 colon
LOX IMVI melanoma = test system: LOX IMVI melanoma
LXFL 529 NSCLC = test system: LXFL 529 NSCLC
M14 melanoma = test system: M14 melanoma
M19-MEL melanoma = test system: M19-MEL melanoma
MALME-3M melanoma = test system: MALME-3M melanoma
MOLT-4 leukemia = test system: MOLT-4 leukemia
NCI-H226 lung = test system: NCI-H226 lung
NCI-H23 lung = test system: NCI-H23 lung
NCI-H460 lung = test system: NCI-H460 lung
NCI-H522 lung = test system: NCI-H522 lung
OVCAR-3 ovarian = test system: OVCAR-3 ovarian
OVCAR-4 ovarian = test system: OVCAR-4 ovarian
OVCAR-5 ovarian = test system: OVCAR-5 ovarian
OVCAR-8 ovarian = test system: OVCAR-8 ovarian
RPMI-8226 leukemia = test system: RPMI-8226 leukemia
RXF 393 renal = test system: RXF 393 renal
SF-268 CNS = test system: SF-268 CNS
SF-295 CNS = test system: SF-295 CNS
SF-539 CNS = test system: SF-539 CNS
SK-MEL-2 melanoma = test system: SK-MEL-2 melanoma
SK-MEL-28 melanoma = test system: SK-MEL-28 melanoma
SK-MEL-5 melanoma = test system: SK-MEL-5 melanoma
SK-OV-3 ovarian = test system: SK-OV-3 ovarian
SN12C renal = test system: SN12C renal
SNB-19 CNS = test system: SNB-19 CNS
SNB-78 CNS = test system: SNB-78 CNS
SR leukemia = test system: SR leukemia
SW-620 colon = test system: SW-620 colon
TK-10 renal = test system: TK-10 renal
U251 CNS = test system: U251 CNS
UACC-257 melanoma = test system: UACC-257 melanoma
UACC-62 melanoma = test system: UACC-62 melanoma
UO-31 renal = test system: UO-31 renal
XF 498 CNS = test system: XF 498 CNS

SMILES: COc1cc2c(c(OC)c1OC)-c1ccc(SC)c(=O)cc1C(CC(=O)Oc1ccc(F)cc1)C2 (configuration not stated)
- GI50 (786-0 renal): 325 nM
- TGI (786-0 renal): 75000 nM and > 100000 nM
- GI50 (A498 renal): 43.2 nM
- GI50 (A549 NSCLC): 391 nM
- GI50 (ACHN renal): 587 nM
- TGI (ACHN renal): 75000 nM and > 100000 nM
- GI50 (CAKI-1 renal): 1900 nM
- TGI (CAKI-1 renal): 10000 nM and > 100000 nM
- GI50 (CCRF-CEM leukemia): 367 nM
- TGI (CCRF-CEM leukemia): 27500 nM and > 100000 nM
- GI50 (COLO 205 colon): 307 nM
- TGI (COLO 205 colon): 305 nM and 1030 nM
- TGI (DLD-1 colon): 75000 nM and 10100 nM
- GI50 (DMS 114 small cell lung): 32.5 nM
- GI50 (DMS 273 small cell lung): 262 nM
- GI50 (EKVX NSCLC): 981 nM
- TGI (EKVX NSCLC): 75000 nM and > 100000 nM
- GI50 (HCC-2998 colon): 161 nM
- TGI (HCC-2998 colon): 325 nM and 460 nM
- GI50 (HCT-116 colon): 323 nM
- TGI (HCT-116 colon): 306 nM and 1080 nM
- GI50 (HCT-15 colon): 384 nM
- TGI (HCT-15 colon): 989 nM and 2860 nM
- TGI (HL-60(TB) leukemia): 768 nM
- GI50 (HOP-18 NSCLC): > 100000 nM
- TGI (HOP-18 NSCLC): 75000 nM and > 100000 nM
- GI50 (HOP-62 NSCLC): 410 nM
- TGI (HOP-62 NSCLC): 54600 nM and 49600 nM
- GI50 (HOP-92 NSCLC): 1910 nM
- TGI (HOP-92 NSCLC): 75000 nM and 97700 nM
- GI50 (HT29 colon): 258 nM
- TGI (HT29 colon): 392 nM and 675 nM
- GI50 (IGROV1 ovarian): 293 nM
- TGI (IGROV1 ovarian): 75000 nM and > 100000 nM
- GI50 (K-562 leukemia): 351 nM
- TGI (K-562 leukemia): 75000 nM and > 100000 nM
- TGI (KM12 colon): 2370 nM
- GI50 (KM20L2 colon): 189 nM
- TGI (KM20L2 colon): 239 nM and 363 nM
- GI50 (LOX IMVI melanoma): 392 nM
- TGI (LOX IMVI melanoma): 8260 nM and 10800 nM
- GI50 (LXFL 529 NSCLC): 507 nM
- TGI (M14 melanoma): 14400 nM
- GI50 (M19-MEL melanoma): 338 nM
- TGI (M19-MEL melanoma): 14100 nM and 23100 nM
- TGI (MALME-3M melanoma): 75000 nM and > 100000 nM
- GI50 (MOLT-4 leukemia): 518 nM
- TGI (MOLT-4 leukemia): 27700 nM and > 100000 nM
- GI50 (NCI-H226 lung): 201 nM
- TGI (NCI-H226 lung): 612 nM and 677 nM
- GI50 (NCI-H23 lung): 287 nM
- TGI (NCI-H23 lung): 667 nM and 1040 nM
- GI50 (NCI-H460 lung): 346 nM
- TGI (NCI-H460 lung): 1830 nM and 1140 nM
- GI50 (NCI-H522 lung): 217 nM
- TGI (NCI-H522 lung): 310 nM and 610 nM
- TGI (OVCAR-3 ovarian): 608 nM
- GI50 (OVCAR-4 ovarian): 5400 nM
- TGI (OVCAR-4 ovarian): 75000 nM and > 100000 nM
- GI50 (OVCAR-5 ovarian): 973 nM
- TGI (OVCAR-5 ovarian): 75000 nM and > 100000 nM
- GI50 (OVCAR-8 ovarian): 280 nM
- TGI (RPMI-8226 leukemia): 12200 nM and 11000 nM
- GI50 (RXF 393 renal): 42.6 nM
- GI50 (SF-268 CNS): 461 nM
- TGI (SF-268 CNS): 75000 nM and 15000 nM
- GI50 (SF-295 CNS): 286 nM
- TGI (SF-295 CNS): 75000 nM and > 100000 nM
- TGI (SF-539 CNS): 656 nM
- GI50 (SK-MEL-2 melanoma): 449 nM
- TGI (SK-MEL-2 melanoma): 910 nM and 4170 nM
- TGI (SK-MEL-28 melanoma): > 100000 nM
- GI50 (SK-MEL-5 melanoma): 293 nM
- TGI (SK-MEL-5 melanoma): 1100 nM and 3380 nM
- GI50 (SK-OV-3 ovarian): 40 nM
- TGI (SK-OV-3 ovarian): 24900 nM and 11600 nM
- TGI (SN12C renal): 20200 nM and 7790 nM
- GI50 (SNB-19 CNS): 960 nM
- TGI (SNB-19 CNS): 75000 nM and > 100000 nM
- GI50 (SNB-78 CNS): 89.1 nM
- TGI (SNB-78 CNS): 75000 nM and 73600 nM
- GI50 (SR leukemia): 124 nM
- TGI (SR leukemia): 3140 nM and 24000 nM
- GI50 (SW-620 colon): 358 nM
- TGI (SW-620 colon): 11100 nM and > 100000 nM
- GI50 (TK-10 renal): 21500 nM
- TGI (TK-10 renal): 75000 nM and > 100000 nM
- GI50 (U251 CNS): 410 nM
- TGI (U251 CNS): 1410 nM and 2350 nM
- GI50 (UACC-257 melanoma): 264 nM
- TGI (UACC-257 melanoma): 75000 nM and > 100000 nM
- GI50 (UACC-62 melanoma): 50.9 nM
- TGI (UACC-62 melanoma): 730 nM and 539 nM
- GI50 (UO-31 renal): 2490 nM
- TGI (UO-31 renal): 75000 nM and > 100000 nM
- GI50 (XF 498 CNS): 442 nM
- TGI (XF 498 CNS): 7030 nM and 5130 nM
